From patent publication US11046699B2, “Pyrazolo-pyrimidin-amino-cycloalkyl compounds and their therapeutic uses” (RAPT THERAPEUTICS, INC., priority 2018, dated 2021)

Target: GCN2 (Homo sapiens, UniProt Q9P2K8)
Experiment: GCN2 enzymatic endpoint assay: phosphorylation of GFP-eIF2α measured by TR-FRET (Lanthascreen)
Format: biochemical
Conditions: tested as described in Example 77; compound and/or hydrochloride, dihydrochloride or trifluoroacetic acid salt; read-out: IC 50 Activity
How it was run: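 Phosphorylated eIF2α read by Lanthascreen TR-FRET (acceptor 520 nm over donor 495 nm) after EDTA stop. The reaction ran 90 min at room temperature on 80 nM GFP-eIF2α with 2 μM ATP.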

Chain of GCN2 (Q9P2K8 whole entry): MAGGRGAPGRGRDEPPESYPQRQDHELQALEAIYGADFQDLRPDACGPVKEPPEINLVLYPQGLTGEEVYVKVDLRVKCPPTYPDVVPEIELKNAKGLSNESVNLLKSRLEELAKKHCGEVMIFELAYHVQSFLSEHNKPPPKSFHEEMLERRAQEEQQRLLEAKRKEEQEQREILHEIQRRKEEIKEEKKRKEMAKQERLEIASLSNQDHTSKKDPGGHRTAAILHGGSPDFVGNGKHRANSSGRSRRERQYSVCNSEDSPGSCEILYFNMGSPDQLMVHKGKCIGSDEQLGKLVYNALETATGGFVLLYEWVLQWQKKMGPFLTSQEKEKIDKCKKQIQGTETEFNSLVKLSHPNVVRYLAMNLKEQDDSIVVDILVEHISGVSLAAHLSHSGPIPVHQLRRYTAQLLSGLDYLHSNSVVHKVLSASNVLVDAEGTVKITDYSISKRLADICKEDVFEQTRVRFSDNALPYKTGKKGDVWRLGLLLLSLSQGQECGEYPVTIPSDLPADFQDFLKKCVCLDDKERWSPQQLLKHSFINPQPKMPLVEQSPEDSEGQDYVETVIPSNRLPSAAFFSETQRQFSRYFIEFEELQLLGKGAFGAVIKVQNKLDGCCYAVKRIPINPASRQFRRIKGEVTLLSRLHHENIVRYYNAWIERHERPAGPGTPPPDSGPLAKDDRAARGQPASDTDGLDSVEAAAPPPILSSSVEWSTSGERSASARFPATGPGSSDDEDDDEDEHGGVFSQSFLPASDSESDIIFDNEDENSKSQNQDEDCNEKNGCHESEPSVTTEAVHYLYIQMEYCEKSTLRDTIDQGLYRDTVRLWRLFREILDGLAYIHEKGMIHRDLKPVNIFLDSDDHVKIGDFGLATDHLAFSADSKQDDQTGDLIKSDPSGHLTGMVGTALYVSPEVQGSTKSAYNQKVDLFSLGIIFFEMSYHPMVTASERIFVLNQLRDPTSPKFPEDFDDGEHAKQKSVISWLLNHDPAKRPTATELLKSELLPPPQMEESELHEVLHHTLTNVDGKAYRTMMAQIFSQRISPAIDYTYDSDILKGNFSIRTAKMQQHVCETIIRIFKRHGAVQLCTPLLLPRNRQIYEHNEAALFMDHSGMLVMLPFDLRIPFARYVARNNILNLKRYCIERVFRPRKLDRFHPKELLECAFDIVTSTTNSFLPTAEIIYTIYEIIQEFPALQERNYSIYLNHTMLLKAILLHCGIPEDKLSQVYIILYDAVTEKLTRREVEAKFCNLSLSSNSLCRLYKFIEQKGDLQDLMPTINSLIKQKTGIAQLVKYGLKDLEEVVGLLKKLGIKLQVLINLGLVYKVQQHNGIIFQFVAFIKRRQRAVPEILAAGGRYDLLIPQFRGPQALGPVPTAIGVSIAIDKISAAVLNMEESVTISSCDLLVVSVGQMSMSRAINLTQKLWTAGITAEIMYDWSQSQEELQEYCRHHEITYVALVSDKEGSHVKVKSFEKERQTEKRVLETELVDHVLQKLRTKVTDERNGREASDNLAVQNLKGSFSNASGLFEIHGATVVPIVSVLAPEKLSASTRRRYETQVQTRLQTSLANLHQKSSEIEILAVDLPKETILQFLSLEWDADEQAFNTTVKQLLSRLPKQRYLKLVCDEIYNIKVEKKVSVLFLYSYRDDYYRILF

IC50	Structure (SMILES)
25 to 200 nM	O=C([C@@H]1CC[C@@H](Nc2ncc3c(Br)nn(-c4cc(F)c5ncccc5c4)c3n2)C1)N1CCN2C(=O)COCC2C1 (stereo partly drawn) [8-((1R,3R)-3-((3-bromo-1-(8-fluoroquinolin-6-yl)-1H-pyrazolo[3,4-d]pyrimidin-6-yl)amino)cyclopentane-1-carbonyl)hexahydropyrazino [2,1-c][1,4]oxazin-4(3H)-one]
25 to 200 nM	C[C@@]1(C(=O)N2CCN3C(=O)COCC3C2)CC[C@@H](Nc2ncc3c(Br)nn(-c4cc(F)c5ncccc5c4)c3n2)C1 (stereo partly drawn) [8-[(1R,3R)-3-[[3-bromo-1-(8-fluoro-6-quinolyl)pyrazolo[3,4-d]pyrimidin-6-yl]amino]-1-methyl-cyclopentane-carbonyl]-6,7,9,9a-tetrahydro-1H-pyrazino[2,1-c][1,4]oxazin-4-one]
25 to 200 nM	CNC(=O)[C@]1(C)CCC(Nc2ncc3c(Br)nn(-c4ccc5nn(CCN)cc5c4)c3n2)C1 (stereo partly drawn) [(1R)-3-[[1-[2-(2-aminoethyl)indazol-5-yl]-3-bromo-pyrazolo[3,4-d]pyrimidin-6-yl]amino]-N,1-dimethyl-cyclopentane-carboxamide]
25 to 200 nM	CNC(=O)[C@]1(C)CCC(Nc2ncc3c(Br)nn(-c4ccc5c(=O)[nH]ccc5c4)c3n2)C1 (stereo partly drawn) [(1R)-3-[[3-bromo-1-(1-oxo-2H-isoquinolin-6-yl)pyrazolo[3,4-d]pyrimidin-6-yl]amino]-N,1-dimethyl-cyclopentanecarboxamide]
25 to 200 nM	CNC(=O)[C@]1(C)CCC(Nc2ncc3c(Br)nn(-c4ccc5c(c4)CNC5=O)c3n2)C1 (stereo partly drawn) [(1R)-3-[[3-bromo-1-(1-oxoisoindolin-5-yl)pyrazolo[3,4-d]pyrimidin-6-yl]amino]-N,1-dimethyl-cyclopentanecarboxamide]
25 to 200 nM	CNC(=O)[C@]1(C)CCC(Nc2ncc3c(Br)nn(-c4ccc5c(c4)CCC(=O)N5)c3n2)C1 (stereo partly drawn) [(1R)-3-[[3-bromo-1-(2-oxo-3,4-dihydro-1H-quinolin-6-yl)pyrazolo[3,4-d]pyrimidin-6-yl]amino]-N,1-dimethyl-cyclopentane-carboxamide]
25 to 200 nM	CNC(=O)[C@]1(C)CCC(Nc2ncc3c(Br)nn(-c4ccc5c(c4)NC(=O)CC5)c3n2)C1 (stereo partly drawn) [(1R)-3-[[3-bromo-1-(2-oxo-3,4-dihydro-1H-quinolin-7-yl)pyrazolo[3,4-d]pyrimidin-6-yl]amino]-N,1-dimethyl-cyclopentane-carboxamide]
25 to 200 nM	CNC(=O)[C@]1(C)CCC(Nc2ncc3c(Br)nn(-c4cc(F)cc(C5COC5)c4)c3n2)C1 (stereo partly drawn) [(1R)-3-[[3-bromo-1-[3-fluoro-5-(oxetan-3-yl)phenyl]pyrazolo[3,4-d]pyrimidin-6-yl]amino]-N,1-dimethyl-cyclopentane-carboxamide]
25 to 200 nM	COCCNC(=O)[C@@H]1CCC(Nc2ncc3c(Br)nn(-c4ccc(-c5nnc(C)s5)cc4)c3n2)C1 (stereo partly drawn) [(1R)-3-[[3-bromo-1-[4-(5-methyl-1,3,4-thiadiazol-2-yl)phenyl]pyrazolo[3,4-d]pyrimidin-6-yl]amino]-N-(2-methoxy-ethyl)cyclopentanecarboxamide]
25 to 200 nM	CNC(=O)[C@]1(C)CCC(Nc2ncc3c(Br)nn(-c4cnc(-c5nnc(C)s5)c(Cl)c4)c3n2)C1 (stereo partly drawn) [(1R)-3-[[3-bromo-1-[5-chloro-6-(5-methyl-1,3,4-thiadiazol-2-yl)-3-pyridyl]pyrazolo [3,4-d]pyrimidin-6-yl]amino]-N,1-dimethyl-cyclopentanecarboxamide]
25 to 200 nM	CNC(=O)[C@]1(C)CCC(Nc2ncc3c(Br)nn(-c4cnc(-c5nnc(C)s5)c(F)c4)c3n2)C1 (stereo partly drawn) [(1R)-3-[[3-bromo-1-[5-fluoro-6-(5-methyl-1,3,4-thiadiazol-2-yl)-3-pyridyl]pyrazolo [3,4-d]pyrimidin-6-yl]amino]-N,1-dimethyl-cyclopentanecarboxamide]
25 to 200 nM	O[C@@H]1CCC[C@@H]1Nc1ncc2c(Br)nn(-c3cc(F)c4ncccc4c3)c2n1 [(1R,2S)-2-[[3-bromo-1-(8-fluoro-6-quinolyl)pyrazolo[3,4-d]pyrimidin-6-yl]amino]cyclopentanol]
< 25 nM	CC[C@@]1(C(=O)NC)CC[C@@H](Nc2ncc3c(I)nn(-c4cc(F)c5ncccc5c4)c3n2)C1 [(1R,3R)-1-ethyl-3-[[1-(8-fluoro-6-quinolyl)-3-iodo-pyrazolo[3,4-d]pyrimidin-6-yl]amino]-N-methyl-cyclopentanecarboxamide]
200 to 500 nM	COCCNC(=O)[C@@H]1CC[C@@H](Nc2ncc3c(Br)nn(-c4ccc(-n5cccn5)cc4)c3n2)C1 [(1R,3R)-3-((1-(4-(1H-pyrazol-1-yl)phenyl)-3-bromo-1H-pyrazolo[3,4-d]pyrimidin-6-yl)amino)-N-(2-methoxyethyl)cyclopentane-1-carboxamide]
200 to 500 nM	COCCNC(=O)[C@@H]1CC[C@@H](Nc2ncc3c(Br)nn(-c4ccc(-c5ccn[nH]5)cc4)c3n2)C1 [(1R,3R)-3-((1-(4-(1H-pyrazol-5-yl)phenyl)-3-bromo-1H-pyrazolo[3,4-d]pyrimidin-6-yl)amino)-N-(2-methoxyethyl)cyclopentane-1-carboxamide]
25 to 200 nM	CNC(=O)[C@@H]1CC[C@@H](Nc2ncc3c(Br)nn(-c4ccc(-c5nnn[nH]5)cc4)c3n2)C1 [(1R,3R)-3-((1-(4-(1H-tetrazol-5-yl)phenyl)-3-bromo-1H-pyrazolo[3,4-d]pyrimidin-6-yl)amino)-N-methylcyclopentane-1-carboxamide]
200 to 500 nM	CS(=O)(=O)CCNC(=O)[C@@H]1CC[C@@H](Nc2ncc3c(Br)nn(-c4cnn(-c5ccncc5)c4)c3n2)C1 [(1R,3R)-3-((3-bromo-1-(1-(pyridin-4-yl)-1H-pyrazol-4-yl)-1H-pyrazolo[3,4-d]pyrimidin-6-yl)amino)-N-(2-(methylsulfonyl)ethyl)cyclo-pentane-1-carboxamide]
200 to 500 nM	COCCNC(=O)[C@@H]1CC[C@@H](Nc2ncc3c(Br)nn(-c4ccc5cnn(C)c5c4)c3n2)C1 [(1R,3R)-3-((3-bromo-1-(1-methyl-1H-indazol-6-yl)-1H-pyrazolo[3,4-d]pyrimidin-6-yl)amino)-N-(2-methoxyethyl)cyclopentane-1-carboxamide]
500 to 1000 nM	COCCNC(=O)[C@@H]1CC[C@@H](Nc2ncc3c(Br)nn(-c4ccc5cn[nH]c5c4)c3n2)C1 [(1R,3R)-3-((3-bromo-1-(1H-indazol-6-yl)-1H-pyrazolo[3,4-d]pyrimidin-6-yl)amino)-N-(2-methoxyethyl)cyclopentane-1-carboxamide]
200 to 500 nM	COCCNC(=O)[C@@H]1CC[C@@H](Nc2ncc3c(Br)nn(-c4ccc5nc(C)ccc5c4)c3n2)C1 [(1R,3R)-3-((3-bromo-1-(2-methylquinolin-6-yl)-1H-pyrazolo[3,4-d]pyrimidin-6-yl)amino)-N-(2-methoxyethyl)cyclopentane-1-carboxamide]
25 to 200 nM	CNC(=O)[C@@H]1CC[C@@H](Nc2ncc3c(Br)nn(-c4cc(F)c5nc(C)c(F)cc5c4)c3n2)C1 [(1R,3R)-3-((3-bromo-1-(3,8-difluoro-2-methyl-quinolin-6-yl)-1H-pyrazolo[3,4-d]pyrimidin-6-yl)amino)-N-methylcyclopentane-1-carboxamide]
500 to 1000 nM	CNC(=O)[C@@H]1CC[C@@H](Nc2ncc3c(Br)nn(-c4ccc(N5CCOCC5)c(C#N)c4)c3n2)C1 [(1R,3R)-3-((3-bromo-1-(3-cyano-4-morpholinophenyl)-1H-pyrazolo[3,4-d]pyrimidin-6-yl)amino)-N-methylcyclo-pentane-1-carboxamide]
25 to 200 nM	CNC(=O)[C@@H]1CC[C@@H](Nc2ncc3c(Br)nn(-c4ccc5nc(C)c(F)cc5c4)c3n2)C1 [(1R,3R)-3-((3-bromo-1-(3-fluoro-2-methyl-quinolin-6-yl)-1H-pyrazolo[3,4-d]pyrimidin-6-yl)amino)-N-methylcyclopentane-1-carboxamide]
25 to 200 nM	COCCNC(=O)[C@@H]1CC[C@@H](Nc2ncc3c(Br)nn(-c4ccc5ncc(F)cc5c4)c3n2)C1 [(1R,3R)-3-((3-bromo-1-(3-fluoroquinolin-6-yl)-1H-pyrazolo[3,4-d]pyrimidin-6-yl)amino)-N-(2-methoxyethyl)cyclopentane-1-carboxamide]
500 to 1000 nM	Cn1ccnc1-c1ccc(-n2nc(Br)c3cnc(N[C@@H]4CC[C@@H](C(=O)NCCS(C)(=O)=O)C4)nc32)cc1 [(1R,3R)-3-((3-bromo-1-(4-(1-methyl-1H-imidazol-2-yl)phenyl)-1H-pyrazolo[3,4-d]pyrimidin-6-yl)amino)-N-(2-(methyl-sulfonyl)ethyl)cyclopentane-1-carboxamide]
500 to 1000 nM	COCCNC(=O)[C@@H]1CC[C@@H](Nc2ncc3c(Br)nn(-c4ccc(-c5ccncc5)cc4)c3n2)C1 [(1R,3R)-3-((3-bromo-1-(4-(pyridin-4-yl)phenyl)-1H-pyrazolo[3,4-d]pyrimidin-6-yl)amino)-N-(2-methoxyethyl)cyclopentane-1-carboxamide]
200 to 500 nM	COCCNC(=O)[C@@H]1CC[C@@H](Nc2ncc3c(Br)nn(-c4ccc5nc(C)cc(Cl)c5c4)c3n2)C1 [(1R,3R)-3-((3-bromo-1-(4-chloro-2-methyl-quinolin-6-yl)-1H-pyrazolo[3,4-d]pyrimidin-6-yl)amino)-N-(2-methoxyethyl)cyclopentane-1-carboxamide]
500 to 1000 nM	COCCNC(=O)[C@@H]1CC[C@@H](Nc2ncc3c(Br)nn(-c4cncc(OC)c4)c3n2)C1 [(1R,3R)-3-((3-bromo-1-(5-methoxypyridin-3-yl)-1H-pyrazolo[3,4-d]pyrimidin-6-yl)amino)-N-(2-methoxyethyl)cyclopentane-1-carboxamide]
500 to 1000 nM	COCCNC(=O)[C@@H]1CC[C@@H](Nc2ncc3c(Br)nn(-c4cnc5ccc(F)cc5c4)c3n2)C1 [(1R,3R)-3-((3-bromo-1-(6-fluoroquinolin-3-yl)-1H-pyrazolo[3,4-d]pyrimidin-6-yl)amino)-N-(2-methoxyethyl)cyclopentane-1-carboxamide]
200 to 500 nM	CS(=O)(=O)CCNC(=O)[C@@H]1CC[C@@H](Nc2ncc3c(Br)nn(-c4cc(C(F)F)c5ncccc5c4)c3n2)C1 [(1R,3R)-3-((3-bromo-1-(8-(difluoromethyl)quinolin-6-yl)-1H-pyrazolo[3,4-d]pyrimidin-6-yl)amino)-N-(2-(methylsulfonyl)ethyl)cyclo-pentane-1-carboxamide]
